Results from ChEMBL document CHEMBL1201862, “PubChem BioAssay data set” (2004).
Calls of active or inactive are those of the source.

What was measured:
[1] = biological target: Aurora kinase A (Homo sapiens, UniProt O14965); type: functional;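 further: value from the Navigating the Kinome kinase panel profiling, panel entry STK6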
[2] = biological target: Aurora kinase B (Homo sapiens, UniProt Q96GD4); type: functional
[3] = biological target: T1, Ubiquitin-conjugating enzyme E2 N (Homo sapiens, UniProt P61088); type: functional;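 further: Dose-response confirmation in a TR-FRET assay detecting UBC13-driven polyubiquitin chain formation, inhibition measured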
T1 sequence (P61088 whole entry): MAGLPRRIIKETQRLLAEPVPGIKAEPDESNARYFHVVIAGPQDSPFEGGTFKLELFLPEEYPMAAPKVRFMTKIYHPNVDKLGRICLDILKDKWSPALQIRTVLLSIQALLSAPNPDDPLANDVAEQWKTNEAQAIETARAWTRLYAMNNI

[4] = biological target: T2, Melanocortin receptor 4 (Homo sapiens, UniProt P32245); test: MC4R antagonist potency on cAMP, dose response, cell-based, TR-FRET, biased antagonists (AID 602298); type: functional;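 further: antagonist potency against agonist-stimulated cAMP production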
[5] = nonselective inhibitors of cellular cAMP signaling, dose response, counter-screen for MC4R biased antagonist project, cell-based, TR-FRET cAMP detection (AID 602305); type: functional;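 further: U2OS cells stimulated with forskolin near its EC80 as the cAMP inducer; potency is for inhibition of forskolin-stimulated cAMP signaling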
[6] = biological target: T2, Melanocortin receptor 4; type: functional, cell-based
[7] = biological target: Low molecular weight phosphotyrosine protein phosphatase (Homo sapiens, UniProt P24666); type: functional; settings: read-out: IC50_Mean;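 further: Dose-response confirmation assay measuring inhibition of LMPTP enzyme activity by fluorescence intensity read-out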
[8] = test system: Escherichia coli; test: microbe, parasite or virus in culture
[9] = biological target: Large T antigen (Simian virus 40, UniProt P03070); type: functional, Betapolyomavirus macacae;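 further: Confirmatory-stage PubChem screen for compounds that inhibit SV40 T antigen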
[10] = biological target: Induced myeloid leukemia cell differentiation protein Mcl-1 (Homo sapiens, UniProt Q07820); type: functional
[11] = biological target: Eukaryotic translation initiation factor 4E (Mus musculus, UniProt P63073); test: eIF4E–eIF4G protein interaction inhibitors, dose response, biochemical, TR-FRET (AID 855); type: functional;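 further: potency for disrupting eIF4E binding to eIF4GI seen as loss of FRET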
[12] = biological target: Genome polyprotein (dengue virus type 2, UniProt P29990); test: Dengue-2 NS5 methyltransferase inhibitors, primary screen, biochemical, confirmation dose response (AID 588689); type: functional
[13] = biological target: DNA (cytosine-5)-methyltransferase 1 (Homo sapiens, UniProt P26358); test: DNMT1 methyltransferase inhibitors, confirmation, biochemical, fluorescent molecular beacon (AID 602386); type: functional
[14] = biological target: 26S proteasome non-ATPase regulatory subunit 14 (Homo sapiens, UniProt O00487); test: inhibition of proteasome subunit RPN11 – biochemical, fluorescence polarization, uHTS hits, confirmation (AID 602368); type: functional
[15] = biological target: 72 kDa type IV collagenase (Homo sapiens, UniProt P08253); test: Dose Response validation of uHTS RPN11 inhibitor hits using a MMP-2 Fluorescence assay.; type: functional
[16] = biological target: Prothrombin (Bos taurus, UniProt P00735); test: thrombin inhibition, dose response, biochemical, fluorescence polarization, uHTS hits (AID 602369); type: functional
[17] = biological target: T3, Histone-lysine N-methyltransferase NSD2 (Homo sapiens, UniProt O96028); type: biochemical
T3 sequence (O96028 whole entry): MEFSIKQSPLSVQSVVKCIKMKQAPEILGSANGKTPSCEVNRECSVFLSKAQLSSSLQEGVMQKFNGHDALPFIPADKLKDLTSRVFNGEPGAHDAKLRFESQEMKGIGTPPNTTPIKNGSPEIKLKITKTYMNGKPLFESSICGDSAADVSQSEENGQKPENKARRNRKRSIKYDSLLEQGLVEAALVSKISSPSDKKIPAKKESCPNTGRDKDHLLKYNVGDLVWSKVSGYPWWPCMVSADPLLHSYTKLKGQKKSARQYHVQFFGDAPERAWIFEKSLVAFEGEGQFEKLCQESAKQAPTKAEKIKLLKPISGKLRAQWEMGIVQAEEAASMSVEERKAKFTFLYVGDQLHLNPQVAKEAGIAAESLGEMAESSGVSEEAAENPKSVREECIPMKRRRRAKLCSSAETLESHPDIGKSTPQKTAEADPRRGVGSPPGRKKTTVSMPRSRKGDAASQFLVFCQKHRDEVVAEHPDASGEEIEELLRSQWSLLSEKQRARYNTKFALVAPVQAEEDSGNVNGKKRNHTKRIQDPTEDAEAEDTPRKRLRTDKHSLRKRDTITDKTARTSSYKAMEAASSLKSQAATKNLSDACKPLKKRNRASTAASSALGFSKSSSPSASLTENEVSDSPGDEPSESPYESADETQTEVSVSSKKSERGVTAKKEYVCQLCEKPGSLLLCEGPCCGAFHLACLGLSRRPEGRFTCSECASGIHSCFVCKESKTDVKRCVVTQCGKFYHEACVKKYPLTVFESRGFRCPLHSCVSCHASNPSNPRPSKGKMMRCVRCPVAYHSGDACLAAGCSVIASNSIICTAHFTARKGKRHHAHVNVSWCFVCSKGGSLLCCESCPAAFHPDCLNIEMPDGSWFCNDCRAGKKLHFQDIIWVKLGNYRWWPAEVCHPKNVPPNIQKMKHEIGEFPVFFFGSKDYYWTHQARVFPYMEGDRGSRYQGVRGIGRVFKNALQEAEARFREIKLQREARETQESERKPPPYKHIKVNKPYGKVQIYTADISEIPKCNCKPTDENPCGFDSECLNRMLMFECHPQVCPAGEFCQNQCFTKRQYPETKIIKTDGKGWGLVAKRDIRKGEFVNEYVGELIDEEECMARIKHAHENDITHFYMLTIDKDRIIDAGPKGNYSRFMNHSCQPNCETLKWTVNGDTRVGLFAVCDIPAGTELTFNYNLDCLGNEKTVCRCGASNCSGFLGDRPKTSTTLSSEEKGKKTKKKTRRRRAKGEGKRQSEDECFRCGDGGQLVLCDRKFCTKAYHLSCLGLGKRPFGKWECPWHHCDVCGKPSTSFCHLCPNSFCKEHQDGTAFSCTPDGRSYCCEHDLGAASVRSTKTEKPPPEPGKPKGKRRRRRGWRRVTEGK

[18] = biological target: T4, Carboxy-terminal domain RNA polymerase II polypeptide A small phosphatase 1 (Homo sapiens, UniProt Q9GZU7); test: inhibitors of CTDSP1, concentration-response testing, biochemical assay, absorbance-based, actives from ultra-high-throughput screening (AID 540297); type: functional
T4 sequence (Q9GZU7 whole entry): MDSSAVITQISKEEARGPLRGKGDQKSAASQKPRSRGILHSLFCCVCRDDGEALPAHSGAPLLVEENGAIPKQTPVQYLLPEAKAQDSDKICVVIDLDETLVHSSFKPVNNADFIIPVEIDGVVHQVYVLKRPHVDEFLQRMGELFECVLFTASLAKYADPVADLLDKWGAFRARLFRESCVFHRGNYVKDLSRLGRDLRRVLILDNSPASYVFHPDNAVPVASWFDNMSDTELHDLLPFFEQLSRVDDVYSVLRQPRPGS

[19] = biological target: T5, Apoptotic protease-activating factor 1 (Homo sapiens, UniProt O14727); test: SAR analysis of small molecule Activators of Apaf-1 in a Fluorescent assay.; type: functional; settings: read-out: EC50_Mean;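 further: caspase-3 cleavage of fluorogenic Rh110 DEVD substrate downstream of apoptosome activation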
T5 sequence (O14727 whole entry): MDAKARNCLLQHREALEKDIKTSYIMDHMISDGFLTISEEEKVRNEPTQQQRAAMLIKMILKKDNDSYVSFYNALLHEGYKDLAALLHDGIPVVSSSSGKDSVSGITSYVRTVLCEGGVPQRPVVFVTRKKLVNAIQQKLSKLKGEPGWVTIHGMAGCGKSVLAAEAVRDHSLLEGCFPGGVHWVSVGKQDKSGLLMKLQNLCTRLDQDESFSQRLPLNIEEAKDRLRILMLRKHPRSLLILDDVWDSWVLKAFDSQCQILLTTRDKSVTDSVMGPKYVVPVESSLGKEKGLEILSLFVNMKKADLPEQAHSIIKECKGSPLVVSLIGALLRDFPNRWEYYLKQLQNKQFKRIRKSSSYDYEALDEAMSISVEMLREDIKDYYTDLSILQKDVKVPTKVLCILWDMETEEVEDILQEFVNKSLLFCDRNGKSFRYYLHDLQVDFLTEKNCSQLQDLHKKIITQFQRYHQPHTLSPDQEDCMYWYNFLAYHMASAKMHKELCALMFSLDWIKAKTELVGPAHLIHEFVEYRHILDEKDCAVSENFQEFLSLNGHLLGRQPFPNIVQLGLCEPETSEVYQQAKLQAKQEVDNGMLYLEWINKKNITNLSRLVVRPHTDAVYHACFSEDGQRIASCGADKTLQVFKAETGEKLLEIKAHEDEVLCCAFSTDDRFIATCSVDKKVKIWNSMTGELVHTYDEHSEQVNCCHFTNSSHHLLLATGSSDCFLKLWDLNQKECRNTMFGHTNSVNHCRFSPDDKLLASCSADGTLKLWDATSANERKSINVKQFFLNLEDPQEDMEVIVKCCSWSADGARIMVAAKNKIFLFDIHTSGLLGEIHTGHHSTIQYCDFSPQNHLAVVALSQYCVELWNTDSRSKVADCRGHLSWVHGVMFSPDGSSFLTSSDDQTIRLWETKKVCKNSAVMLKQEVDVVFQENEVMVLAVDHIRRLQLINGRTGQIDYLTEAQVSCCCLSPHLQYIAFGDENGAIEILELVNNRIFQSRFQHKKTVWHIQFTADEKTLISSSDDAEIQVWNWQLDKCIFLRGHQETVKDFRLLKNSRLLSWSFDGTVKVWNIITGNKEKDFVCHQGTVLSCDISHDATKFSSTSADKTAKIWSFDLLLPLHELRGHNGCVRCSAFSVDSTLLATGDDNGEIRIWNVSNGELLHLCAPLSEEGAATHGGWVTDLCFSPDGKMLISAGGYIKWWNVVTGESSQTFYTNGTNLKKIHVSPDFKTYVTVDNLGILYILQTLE

[20] = test system: Streptococcus sp. 'group A'; test: growth inhibition of control SK(-) GAS strain, dose response, counter-screen for streptokinase expression inhibitor project, luminescence, kanamycin, BacTiterGlo, confirmation (AID 1900); type: functional, organism-based; settings: Streptococcus sp. 'group A'
[21] = biological target: T6, Streptokinase A (Streptococcus pyogenes serotype M1, UniProt P10520); test: S. pyogenes streptokinase expression inhibitors, potency, dose response, plasminogen activation absorbance, OD405 (AID 1914); type: functional, Streptococcus pyogenes M1 GAS;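 further: secreted streptokinase activity via plasminogen activation per viability signal from cell pellet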
T6 sequence (P10520 whole entry): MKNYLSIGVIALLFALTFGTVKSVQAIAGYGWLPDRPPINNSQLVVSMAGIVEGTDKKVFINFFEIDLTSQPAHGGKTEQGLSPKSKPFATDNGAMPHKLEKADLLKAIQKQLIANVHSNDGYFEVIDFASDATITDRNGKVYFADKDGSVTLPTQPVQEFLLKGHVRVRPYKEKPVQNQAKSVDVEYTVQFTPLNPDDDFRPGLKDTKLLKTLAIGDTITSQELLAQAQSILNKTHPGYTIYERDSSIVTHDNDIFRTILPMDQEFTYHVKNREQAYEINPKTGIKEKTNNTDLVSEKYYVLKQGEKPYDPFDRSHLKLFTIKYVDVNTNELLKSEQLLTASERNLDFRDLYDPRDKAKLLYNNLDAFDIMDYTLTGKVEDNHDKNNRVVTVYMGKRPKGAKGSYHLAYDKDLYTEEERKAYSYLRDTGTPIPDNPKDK

[22] = test system: Streptococcus; test: Group A Streptococcus viability loss, dose response, counter-screen for streptokinase expression inhibitor project, luminescence, BacTiterGlo (AID 1915); type: functional, organism-based; settings: Streptococcus;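 further: potency for reduction of bacterial viability or growth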

T2 sequence (P32245 whole entry): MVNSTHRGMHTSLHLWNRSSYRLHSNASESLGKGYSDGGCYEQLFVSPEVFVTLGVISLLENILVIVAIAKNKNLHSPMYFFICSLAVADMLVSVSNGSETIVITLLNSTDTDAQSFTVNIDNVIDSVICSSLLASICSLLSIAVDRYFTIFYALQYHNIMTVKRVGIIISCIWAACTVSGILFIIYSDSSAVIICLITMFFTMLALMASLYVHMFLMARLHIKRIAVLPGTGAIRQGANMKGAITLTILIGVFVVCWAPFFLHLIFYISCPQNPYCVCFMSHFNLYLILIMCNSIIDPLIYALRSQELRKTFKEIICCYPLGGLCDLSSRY
72 kDa type IV collagenase, sequence (P08253 whole entry): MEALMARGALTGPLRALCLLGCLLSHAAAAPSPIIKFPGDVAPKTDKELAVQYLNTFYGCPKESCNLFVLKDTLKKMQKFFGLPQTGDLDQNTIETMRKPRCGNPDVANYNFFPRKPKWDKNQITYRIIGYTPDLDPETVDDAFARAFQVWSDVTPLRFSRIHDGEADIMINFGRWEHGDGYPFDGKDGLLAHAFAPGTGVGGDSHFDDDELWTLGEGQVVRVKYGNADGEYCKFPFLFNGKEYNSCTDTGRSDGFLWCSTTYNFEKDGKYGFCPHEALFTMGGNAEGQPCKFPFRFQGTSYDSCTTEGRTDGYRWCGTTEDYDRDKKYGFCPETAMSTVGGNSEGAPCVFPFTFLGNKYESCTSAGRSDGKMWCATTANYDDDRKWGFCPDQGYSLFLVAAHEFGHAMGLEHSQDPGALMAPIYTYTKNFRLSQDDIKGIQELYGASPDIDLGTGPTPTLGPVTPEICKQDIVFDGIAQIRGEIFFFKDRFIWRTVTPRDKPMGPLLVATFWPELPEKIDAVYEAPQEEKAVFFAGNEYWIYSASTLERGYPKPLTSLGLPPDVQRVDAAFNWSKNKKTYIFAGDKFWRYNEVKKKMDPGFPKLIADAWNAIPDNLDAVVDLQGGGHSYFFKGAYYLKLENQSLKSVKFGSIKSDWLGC
26S proteasome non-ATPase regulatory subunit 14, sequence (O00487 whole entry): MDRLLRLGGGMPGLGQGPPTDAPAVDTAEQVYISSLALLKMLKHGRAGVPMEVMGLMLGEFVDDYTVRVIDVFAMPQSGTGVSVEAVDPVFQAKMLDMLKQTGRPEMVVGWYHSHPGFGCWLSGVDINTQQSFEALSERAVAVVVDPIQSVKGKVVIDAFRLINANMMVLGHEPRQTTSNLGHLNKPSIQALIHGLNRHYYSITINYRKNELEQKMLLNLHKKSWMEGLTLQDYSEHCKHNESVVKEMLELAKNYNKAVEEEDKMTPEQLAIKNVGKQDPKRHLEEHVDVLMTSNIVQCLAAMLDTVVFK
Eukaryotic translation initiation factor 4E, sequence (P63073 whole entry): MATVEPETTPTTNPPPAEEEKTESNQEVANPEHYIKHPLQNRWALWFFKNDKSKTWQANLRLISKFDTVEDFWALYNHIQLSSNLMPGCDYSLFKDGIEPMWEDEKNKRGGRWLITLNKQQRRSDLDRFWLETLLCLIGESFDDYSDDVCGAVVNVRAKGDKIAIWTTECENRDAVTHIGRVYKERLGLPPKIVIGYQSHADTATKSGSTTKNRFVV
Aurora kinase B, sequence (Q96GD4 whole entry): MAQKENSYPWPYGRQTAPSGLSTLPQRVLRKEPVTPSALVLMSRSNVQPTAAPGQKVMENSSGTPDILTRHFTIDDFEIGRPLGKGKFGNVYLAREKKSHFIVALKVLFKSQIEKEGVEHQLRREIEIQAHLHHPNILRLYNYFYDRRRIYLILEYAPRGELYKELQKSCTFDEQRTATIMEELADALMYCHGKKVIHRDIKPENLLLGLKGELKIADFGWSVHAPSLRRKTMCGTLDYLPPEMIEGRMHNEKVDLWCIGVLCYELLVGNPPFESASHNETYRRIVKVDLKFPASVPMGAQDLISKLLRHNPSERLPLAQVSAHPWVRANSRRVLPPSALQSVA
Low molecular weight phosphotyrosine protein phosphatase, sequence (P24666 whole entry): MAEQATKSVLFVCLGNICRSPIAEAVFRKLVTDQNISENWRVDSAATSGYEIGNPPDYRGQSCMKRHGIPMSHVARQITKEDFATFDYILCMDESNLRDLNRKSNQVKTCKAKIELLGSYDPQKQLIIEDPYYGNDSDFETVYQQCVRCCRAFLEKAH
Large T antigen, sequence (P03070 whole entry): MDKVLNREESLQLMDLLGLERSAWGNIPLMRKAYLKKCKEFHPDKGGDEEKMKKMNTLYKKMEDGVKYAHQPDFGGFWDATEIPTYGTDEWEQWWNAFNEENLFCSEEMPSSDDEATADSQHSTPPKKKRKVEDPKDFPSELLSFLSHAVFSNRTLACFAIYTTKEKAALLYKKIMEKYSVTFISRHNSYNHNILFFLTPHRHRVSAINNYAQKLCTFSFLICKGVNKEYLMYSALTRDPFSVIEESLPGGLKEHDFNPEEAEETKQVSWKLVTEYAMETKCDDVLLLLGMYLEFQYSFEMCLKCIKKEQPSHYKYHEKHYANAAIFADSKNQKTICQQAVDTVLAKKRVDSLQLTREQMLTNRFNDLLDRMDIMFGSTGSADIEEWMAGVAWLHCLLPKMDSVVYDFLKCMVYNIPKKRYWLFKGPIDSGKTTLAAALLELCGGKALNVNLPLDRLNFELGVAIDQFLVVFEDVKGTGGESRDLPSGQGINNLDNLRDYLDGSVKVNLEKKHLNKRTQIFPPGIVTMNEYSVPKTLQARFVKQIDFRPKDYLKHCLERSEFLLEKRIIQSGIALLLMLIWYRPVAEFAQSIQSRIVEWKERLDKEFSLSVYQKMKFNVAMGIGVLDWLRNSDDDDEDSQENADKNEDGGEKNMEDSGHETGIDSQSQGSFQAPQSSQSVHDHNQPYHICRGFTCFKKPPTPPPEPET
DNA (cytosine-5)-methyltransferase 1, sequence (P26358 whole entry): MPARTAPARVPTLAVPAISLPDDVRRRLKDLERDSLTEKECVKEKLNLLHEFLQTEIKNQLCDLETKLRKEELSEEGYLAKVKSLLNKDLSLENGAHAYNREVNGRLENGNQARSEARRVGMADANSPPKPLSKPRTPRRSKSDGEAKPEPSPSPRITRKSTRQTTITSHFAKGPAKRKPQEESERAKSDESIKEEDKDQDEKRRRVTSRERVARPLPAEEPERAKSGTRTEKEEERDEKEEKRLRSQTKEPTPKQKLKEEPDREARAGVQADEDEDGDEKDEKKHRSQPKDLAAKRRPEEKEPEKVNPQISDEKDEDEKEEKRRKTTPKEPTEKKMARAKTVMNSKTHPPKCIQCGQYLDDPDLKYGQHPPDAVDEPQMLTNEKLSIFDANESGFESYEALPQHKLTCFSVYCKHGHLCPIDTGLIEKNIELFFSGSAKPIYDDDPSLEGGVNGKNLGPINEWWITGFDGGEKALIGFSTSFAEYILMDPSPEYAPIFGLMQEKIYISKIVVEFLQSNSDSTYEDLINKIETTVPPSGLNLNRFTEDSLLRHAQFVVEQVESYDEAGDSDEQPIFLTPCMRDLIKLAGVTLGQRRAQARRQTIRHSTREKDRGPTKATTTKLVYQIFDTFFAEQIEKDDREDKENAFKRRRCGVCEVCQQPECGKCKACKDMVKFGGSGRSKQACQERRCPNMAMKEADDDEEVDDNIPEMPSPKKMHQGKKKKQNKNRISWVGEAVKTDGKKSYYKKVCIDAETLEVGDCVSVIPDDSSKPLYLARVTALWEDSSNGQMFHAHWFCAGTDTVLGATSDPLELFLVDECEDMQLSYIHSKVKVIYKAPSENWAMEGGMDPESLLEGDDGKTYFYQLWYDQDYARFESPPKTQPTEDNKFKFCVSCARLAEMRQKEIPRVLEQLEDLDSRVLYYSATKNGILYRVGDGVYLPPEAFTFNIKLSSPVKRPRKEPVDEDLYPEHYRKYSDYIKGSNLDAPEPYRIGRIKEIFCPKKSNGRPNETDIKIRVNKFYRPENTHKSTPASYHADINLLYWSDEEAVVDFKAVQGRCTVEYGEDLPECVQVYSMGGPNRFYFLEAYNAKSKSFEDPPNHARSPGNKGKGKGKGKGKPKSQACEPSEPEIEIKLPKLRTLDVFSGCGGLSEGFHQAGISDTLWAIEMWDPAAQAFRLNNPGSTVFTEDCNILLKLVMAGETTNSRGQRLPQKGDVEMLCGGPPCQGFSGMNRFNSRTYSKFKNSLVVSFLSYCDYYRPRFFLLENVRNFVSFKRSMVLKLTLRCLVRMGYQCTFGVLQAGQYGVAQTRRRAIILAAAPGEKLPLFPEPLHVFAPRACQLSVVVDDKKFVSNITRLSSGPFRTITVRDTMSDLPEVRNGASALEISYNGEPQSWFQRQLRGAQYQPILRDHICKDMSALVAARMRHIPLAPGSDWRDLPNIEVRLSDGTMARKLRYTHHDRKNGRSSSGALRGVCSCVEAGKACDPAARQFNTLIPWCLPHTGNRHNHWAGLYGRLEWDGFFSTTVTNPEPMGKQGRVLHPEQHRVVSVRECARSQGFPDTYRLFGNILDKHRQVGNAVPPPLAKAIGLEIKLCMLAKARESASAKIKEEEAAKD
Induced myeloid leukemia cell differentiation protein Mcl-1, sequence (Q07820 whole entry): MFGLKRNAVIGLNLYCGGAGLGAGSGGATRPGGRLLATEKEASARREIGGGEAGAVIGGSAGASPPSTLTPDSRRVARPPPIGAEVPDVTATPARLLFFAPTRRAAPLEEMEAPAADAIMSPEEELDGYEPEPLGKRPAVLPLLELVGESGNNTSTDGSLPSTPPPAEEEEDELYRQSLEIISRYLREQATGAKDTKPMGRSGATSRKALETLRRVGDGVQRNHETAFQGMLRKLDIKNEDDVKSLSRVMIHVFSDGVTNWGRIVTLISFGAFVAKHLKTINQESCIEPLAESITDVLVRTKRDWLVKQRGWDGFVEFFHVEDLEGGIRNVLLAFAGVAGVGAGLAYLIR

With `COCCOC1CCC(n2nc(-c3ccc(Nc4nc5cc(Cl)cc(C)c5o4)c(F)c3)c3c(N)ncnc32)CC1` (configuration not stated) as the molecule, how does the Ki [1] read?
Its Ki is 0.126 µM (active).

And the Ki [2]?
Its Ki is 0.00794 µM (active).

Which IC50 [3] does the source give for `CC(C)[C@H](CN1CCC[C@H]1CN1C(N)=NC[C@H]1C(C)C)N1C[C@@H](Cc2ccccc2)N(CCCC2CCCC2)C1=N` here?
Its IC50 is > 20 µM (inactive).

And the IC50 [4]?
Its IC50 is 17.7 µM (inactive).

And the IC50 [5]?
Its IC50 is > 64.5 µM (inactive).

With `O=C(CSc1ccccc1)Nc1nnc(/C=C/c2ccccc2)s1` as the molecule, how does the EC50 [6] read?
Its EC50 is > 89.2 µM (inactive).

With `CCn1cc(C(=O)O)c(=O)c2cc(F)c(N3CCN(C(=S)NC(=O)c4ccccc4C)CC3)cc21` as the molecule, how does the IC50 [7] read?
Its IC50 is 7.19 µM (active).

What about the AC50 [8] of the same molecule?
Its AC50 is 8.2 µM (active).

For `O=C1NN(c2ccc(Cl)cc2)C(=O)/C1=C\c1ccc(-c2cccc(C(=O)O)c2)o1`, which IC50 [9] is on record?
Its IC50 is 27.1 µM (active).

What about the IC50 [10] of the same molecule?
The IC50 was 3.21 µM (active).

What about the IC50 [11] of the same molecule?
Its IC50 is 50 µM (inactive).

And the IC50 [12]?
The IC50 was 77.3 µM (active).

And the IC50 [13]?
Its IC50 is 7.39 µM (active).

What about the IC50 [14] of the same molecule?
The IC50 was 10.9 µM (active).

What about the IC50 [15] of the same molecule?
Its IC50 is 56.7 µM (active).

And the IC50 [16]?
Its IC50 is 19.8 µM (active).

What about the AC50 [17] of the same molecule?
The AC50 was > 20 µM (inactive).

Which results are given for `Cc1ccc(-n2nnc3c(=O)n(CC(=O)NCc4ccccc4)cnc32)cc1`?
IC50 [18]: 5.33 µM (active); IC50 [14]: 24.8 µM (active); IC50 [15]: 12.7 µM (active); IC50 [16]: > 100 µM (inactive)

For `CC(CNc1ccccc1Cl)C(=O)O` (configuration not stated), which EC50 [19] is on record?
Its EC50 is > 100 µM (inactive).

For `COc1ccc(-c2oc3ccc(N4CCOCC4)cc3c2C#CC2(O)CCCCC2)cc1`, which EC50 [20] is on record?
The EC50 was 3.68 µM (active).

What about the EC50 [21] of the same molecule?
The EC50 was > 150 µM (not active).

And the EC50 [22]?
The EC50 was 8.25 µM (active).

What about the IC50 [4] of the same molecule?
The IC50 was > 64.6 µM (inactive).

And the IC50 [5]?
The IC50 was > 64.6 µM (inactive).
